From ChEMBL document CHEMBL3879902, “Compounds and methods for kinase modulation, and indications thereof” (2012)

How the values were obtained:
[1] = Aqueous solubility of the compound in hepes buffer at pH 7.4; type: physicochemical
[2] = Aqueous solubility of the compound in simulated intestinal fluid at pH 6.8; type: ADME; settings: simulated gi fluid
[3] = Aqueous solubility of the compound in simulated gastric fluid at pH 1.5; type: ADME; settings: simulated gi fluid
[4] = Aqueous solubility of the compound in simulated intestinal fluid at pH 4.5; type: ADME; settings: simulated gi fluid

## CCCS(=O)(=O)Nc1ccc(F)c(C(=O)c2c[nH]c3ncc(-c4ccc(OC)nc4OC)cc23)c1F
[1]
  solubility: Insoluble
[2]
  solubility: Insoluble
[3]
  solubility: Insoluble
[4]
  solubility: Insoluble

## N#Cc1cnc2[nH]cc(C(=O)c3cccc(NS(=O)(=O)c4ccccc4F)c3F)c2c1
[1]
  solubility: Soluble
[2]
  solubility: Soluble
[3]
  solubility: Soluble
[4]
  solubility: Soluble

## CCCS(=O)(=O)Nc1ccc(F)c(C(=O)c2c[nH]c3ncc(C#CCOC)cc23)c1F
[1]
  solubility: Soluble
[2]
  solubility: Insoluble
[3]
  solubility: Insoluble
[4]
  solubility: Soluble

## COc1ccnc2[nH]cc(C(=O)c3c(F)ccc(NS(=O)(=O)c4cccc(F)c4)c3F)c12
[1]
  solubility: Soluble
[2]
  solubility: Soluble
[3]
  solubility: Soluble
[4]
  solubility: Soluble

## N#Cc1cnc2[nH]cc(C(=O)c3c(F)ccc(NS(=O)(=O)c4ccccc4F)c3F)c2c1
[1]
  solubility: Soluble
[2]
  solubility: Soluble
[3]
  solubility: Soluble
[4]
  solubility: Soluble

## CCCS(=O)(=O)Nc1ccc(F)c(C(=O)c2c[nH]c3ncc(-c4ccc(OCCCN(C)C)nc4)cc23)c1F
[1]
  solubility: Insoluble
[2]
  solubility: Insoluble
[3]
  solubility: Soluble
[4]
  solubility: Soluble

## CCCS(=O)(=O)Nc1ccc(F)c(C(=O)c2c[nH]c3ncc(-c4ccc(S(N)(=O)=O)cc4)cc23)c1F
[1]
  solubility: Insoluble
[2]
  solubility: Insoluble
[3]
  solubility: Insoluble
[4]
  solubility: Insoluble

## COc1ccnc2[nH]cc(C(=O)c3c(F)ccc(NS(=O)(=O)c4ccccc4F)c3F)c12
[1]
  solubility: Soluble
[2]
  solubility: Soluble
[3]
  solubility: Soluble
[4]
  solubility: Soluble

## COc1ncc(-c2cnc3[nH]cc(C(=O)c4c(F)ccc(NS(=O)(=O)c5cc(F)ccc5F)c4F)c3c2)cn1
[1]
  solubility: Insoluble
[2]
  solubility: Insoluble
[3]
  solubility: Insoluble
[4]
  solubility: Insoluble

## CCCS(=O)(=O)Nc1ccc(F)c(C(=O)c2c[nH]c3ncc(-c4ccc(S(C)(=O)=O)cc4)cc23)c1F
[1]
  solubility: Insoluble
[2]
  solubility: Insoluble
[3]
  solubility: Insoluble
[4]
  solubility: Insoluble

## Cc1cnc2[nH]cc(C(=O)c3c(F)ccc(NS(=O)(=O)c4cccnc4)c3F)c2c1
[1]
  solubility: Soluble
[2]
  solubility: Soluble
[3]
  solubility: Soluble
[4]
  solubility: Soluble

## O=C(c1c(F)ccc(NS(=O)(=O)c2cccnc2)c1F)c1c[nH]c2ncc(Cl)cc12
[1]
  solubility: Soluble
[2]
  solubility: Soluble
[3]
  solubility: Soluble
[4]
  solubility: Soluble

## CCCS(=O)(=O)Nc1ccc(F)c(C(=O)c2c[nH]c3ncc(-c4cnc(SC)nc4)cc23)c1F
[1]
  solubility: Insoluble
[2]
  solubility: Insoluble
[3]
  solubility: Insoluble
[4]
  solubility: Insoluble

## Cc1cnc2[nH]cc(C(=O)c3c(F)ccc(NS(=O)(=O)c4cccc(F)c4)c3F)c2c1
[1]
  solubility: Soluble
[2]
  solubility: Soluble
[3]
  solubility: Soluble
[4]
  solubility: Insoluble

## N#Cc1cnc2[nH]cc(C(=O)c3cccc(NS(=O)(=O)c4cccnc4)c3F)c2c1
[1]
  solubility: Soluble
[2]
  solubility: Soluble
[3]
  solubility: Soluble
[4]
  solubility: Soluble

## CCCS(=O)(=O)Nc1ccc(F)c(C(=O)c2c[nH]c3ncc(-c4cncc(S(C)(=O)=O)c4)cc23)c1F
[1]
  solubility: Soluble
[2]
  solubility: Insoluble
[3]
  solubility: Soluble
[4]
  solubility: Insoluble

## N#Cc1cnc2[nH]cc(C(=O)c3cccc(NS(=O)(=O)c4cccc(F)c4)c3F)c2c1
[1]
  solubility: Soluble
[2]
  solubility: Soluble
[3]
  solubility: Insoluble
[4]
  solubility: Insoluble

## CCCS(=O)(=O)Nc1ccc(F)c(C(=O)c2c[nH]c3ncc(-c4ccnc(F)c4)cc23)c1F
[1]
  solubility: Insoluble
[2]
  solubility: Insoluble
[3]
  solubility: Insoluble
[4]
  solubility: Insoluble

## CCCS(=O)(=O)Nc1ccc(F)c(C(=O)c2c[nH]c3ncc(-c4cncnc4)cc23)c1F
[1]
  solubility: Soluble
[2]
  solubility: Soluble
[3]
  solubility: Soluble
[4]
  solubility: Soluble

## Cc1cnc2[nH]cc(C(=O)c3c(F)ccc(NS(=O)(=O)c4cc(F)ccc4F)c3F)c2c1
[1]
  solubility: Soluble
[2]
  solubility: Soluble
[3]
  solubility: Soluble
[4]
  solubility: Insoluble

## CCCS(=O)(=O)Nc1ccc(F)c(C(=O)c2c[nH]c3ncc(-c4ccc(OCCCN5CCOCC5)nc4)cc23)c1F
[1]
  solubility: Insoluble
[2]
  solubility: Insoluble
[3]
  solubility: Soluble
[4]
  solubility: Soluble

## CCCS(=O)(=O)Nc1ccc(F)c(C(=O)c2c[nH]c3ncc(-c4ccc(C)nc4)cc23)c1F
[1]
  solubility: Insoluble
[2]
  solubility: Insoluble
[3]
  solubility: Soluble
[4]
  solubility: Soluble

## CCCS(=O)(=O)Nc1ccc(F)c(C(=O)c2c[nH]c3ncc(-c4ccc(NS(C)(=O)=O)cc4)cc23)c1F
[1]
  solubility: Insoluble
[2]
  solubility: Insoluble
[3]
  solubility: Insoluble
[4]
  solubility: Insoluble

## CCCS(=O)(=O)Nc1ccc(F)c(C(=O)c2c[nH]c3ncc(-c4ccc(C(=O)NCC)nc4)cc23)c1F
[1]
  solubility: Insoluble
[2]
  solubility: Insoluble
[3]
  solubility: Insoluble
[4]
  solubility: Insoluble

## COc1ccnc2[nH]cc(C(=O)c3c(F)ccc(NS(=O)(=O)c4cc(F)ccc4F)c3F)c12
[1]
  solubility: Soluble
[2]
  solubility: Soluble
[3]
  solubility: Soluble
[4]
  solubility: Soluble

## N#Cc1cnc2[nH]cc(C(=O)c3cccc(NS(=O)(=O)c4ccccc4)c3F)c2c1
[1]
  solubility: Soluble
[2]
  solubility: Soluble
[3]
  solubility: Insoluble
[4]
  solubility: Insoluble

## CCCS(=O)(=O)Nc1ccc(F)c(C(=O)c2c[nH]c3ncc(-c4cnn(Cc5ccccc5)c4)cc23)c1F
[1]
  solubility: Insoluble
[2]
  solubility: Insoluble
[3]
  solubility: Insoluble
[4]
  solubility: Insoluble

## COc1ncc(-c2cnc3[nH]cc(C(=O)c4c(F)ccc(NS(=O)(=O)c5ccccc5F)c4F)c3c2)cn1
[1]
  solubility: Insoluble
[2]
  solubility: Insoluble
[3]
  solubility: Insoluble
[4]
  solubility: Insoluble

## Cc1cnc2[nH]cc(C(=O)c3c(F)ccc(NS(=O)(=O)c4ccccc4F)c3F)c2c1
[1]
  solubility: Soluble
[2]
  solubility: Soluble
[3]
  solubility: Insoluble
[4]
  solubility: Soluble

## O=C(c1c(F)ccc(NS(=O)(=O)c2ccccc2F)c1F)c1c[nH]c2nccc(Cl)c12
[1]
  solubility: Soluble
[2]
  solubility: Soluble
[3]
  solubility: Soluble
[4]
  solubility: Soluble

## CCCS(=O)(=O)Nc1ccc(F)c(C(=O)c2c[nH]c3ncc(-c4ccc(S(=O)(=O)N5CCOCC5)cc4)cc23)c1F
[1]
  solubility: Insoluble
[2]
  solubility: Insoluble
[3]
  solubility: Insoluble
[4]
  solubility: Insoluble

## COc1ncc(-c2cnc3[nH]cc(C(=O)c4c(F)ccc(NS(=O)(=O)c5cccc(F)c5)c4F)c3c2)cn1
[1]
  solubility: Soluble
[2]
  solubility: Insoluble
[3]
  solubility: Insoluble
[4]
  solubility: Insoluble

## COc1cnc2[nH]cc(C(=O)c3c(F)ccc(NS(=O)(=O)c4ccccc4F)c3F)c2c1
[1]
  solubility: Soluble
[2]
  solubility: Insoluble
[3]
  solubility: Insoluble
[4]
  solubility: Insoluble

## CCCS(=O)(=O)Nc1ccc(F)c(C(=O)c2c[nH]c3ncc(-c4cnc(C)nc4)cc23)c1F
[1]
  solubility: Soluble
[2]
  solubility: Soluble
[3]
  solubility: Soluble
[4]
  solubility: Soluble

## CCCS(=O)(=O)Nc1ccc(F)c(C(=O)c2c[nH]c3ncc(-c4ccc(OCCN5CCCC5)nc4)cc23)c1F
[1]
  solubility: Soluble
[2]
  solubility: Insoluble
[3]
  solubility: Insoluble
[4]
  solubility: Soluble

## CCCS(=O)(=O)Nc1ccc(F)c(C(=O)c2c[nH]c3ncc(-c4ccc(C#CCN(CC)CC)nc4)cc23)c1F
[1]
  solubility: Insoluble
[2]
  solubility: Insoluble
[3]
  solubility: Insoluble
[4]
  solubility: Insoluble

## CCCS(=O)(=O)Nc1cccc(C(=O)c2c[nH]c3ncc(-c4cnc(OC)nc4)cc23)c1F
[1]
  solubility: Insoluble
[2]
  solubility: Insoluble
[3]
  solubility: Insoluble
[4]
  solubility: Insoluble

## CCCS(=O)(=O)Nc1ccc(F)c(C(=O)c2c[nH]c3ncc(-c4ccc(OCCCN5CCCC5)nc4)cc23)c1F
[1]
  solubility: Insoluble
[2]
  solubility: Insoluble
[3]
  solubility: Insoluble
[4]
  solubility: Soluble

## CCCS(=O)(=O)Nc1ccc(F)c(C(=O)c2c[nH]c3ncc(-c4cnc(N(C)C)nc4)cc23)c1F
[1]
  solubility: Insoluble
[2]
  solubility: Insoluble
[3]
  solubility: Soluble
[4]
  solubility: Insoluble

## N#Cc1cnc2[nH]cc(C(=O)c3cccc(NS(=O)(=O)c4cc(F)ccc4F)c3F)c2c1
[1]
  solubility: Soluble
[2]
  solubility: Soluble
[3]
  solubility: Insoluble
[4]
  solubility: Insoluble

## N#Cc1ccnc2[nH]cc(C(=O)c3c(F)ccc(NS(=O)(=O)c4ccccc4F)c3F)c12
[1]
  solubility: Soluble
[2]
  solubility: Soluble
[3]
  solubility: Soluble
[4]
  solubility: Soluble

## CCCS(=O)(=O)Nc1ccc(F)c(C(=O)c2c[nH]c3ncc(-c4ccc(N5CCCC5)nc4)cc23)c1F
[1]
  solubility: Insoluble
[2]
  solubility: Insoluble
[3]
  solubility: Insoluble
[4]
  solubility: Insoluble

## CCCS(=O)(=O)Nc1ccc(F)c(C(=O)c2c[nH]c3ncc(-c4cnn(CCN5CCOCC5)c4)cc23)c1F
[1]
  solubility: Insoluble
[2]
  solubility: Insoluble
[3]
  solubility: Soluble
[4]
  solubility: Soluble

## CCCS(=O)(=O)Nc1ccc(F)c(C(=O)c2c[nH]c3ncc(-c4cnc(N5CCCC5)nc4)cc23)c1F
[1]
  solubility: Insoluble
[2]
  solubility: Insoluble
[3]
  solubility: Soluble
[4]
  solubility: Insoluble
